Data from patent US20250333682A1, “DYNAMIC HYDROGEL AND PULMONARY FIBROSIS BIONIC CHIP” (Anivance AI Corporation, priority 2024, published 2025).

Test system: HFL-1 cells
Test: antifibrotic drug efficacy model on lung fibrosis bionic chip, immunofluorescence staining
Assay type: cell-based, human
Conditions: TGF-β-induced HFL-1 on dynamic hydrogel with laser dynamic response
Procedure: Using the dynamic hydrogel obtained from different crosslinking times as the cell culture substrate for fibrosis models (human fetal lung fibroblasts, HFL-1), the expression of α-SMA protein is used as an indicator of myofibroblast differentiation. After culturing the HFL-1 cells for one day, 10 ng/ml of TGF-β is added to stimulate the cells as a control group for α-SMA expression. After two days of culture, a laser device is used to irradiate the cells for 24 hours at frequencies of 0.2 Hz (On-1.5 s/Off-3.5 s) and 0.3 Hz ([…]), respectively. The cells are then fixed and stained for observation. In FIG. 11, “10 min” and “25 min” indicate the fluorescence images of the dynamic hydrogel 5 obtained by UV irradiation for 10 minutes and 25 minutes, respectively.
Furthermore, since ECM remodeling in lung fibrosis patients leads to tissue stiffness, and stiff substrates apply mechanical stress to cells, the activity of YAP occurs through nuclear translocation, with YAP cellular localization depending on mechanical stress. Therefore, HFL-1 cells are cultured in dynamic hydrogels of different hardness (simulating substrates of varying stiffness) and dynamic response environments with laser frequencies to evaluate the effects of substrate hardness and dynamic response on the localization of YAP in lung fibroblasts. […]

Q: What does the source list for `Cc1ccc(=O)n(-c2ccccc2)c1` [pirfenidone]?
A: expression of the fibrotic marker α-SMA (pirfenidone 5.3 mM, two days drug, FIG. 13(a)): inhibited; inhibiting the mechanical response marker YAP (pirfenidone, FIG. 13(b)): less significant effect
